# Active and inactive are the calls of the source. How the calls were made is not given here.
# Target: Neuropeptides B/W receptor type 1 (Homo sapiens) (UniProt P48145)
# Experiment: GPR7 antagonists, late-stage follow-up, cell-based, fluorescence, dose response, set 3 (AID 540365)
# Conditions: GPR7-expressing cells, fluorescence antagonist read-out
SMILES,IC50 (run 1),IC50 (run 2),IC50 (run 3)
CCOC(=O)C(c1ccccc1)n1ncc(Cl)c(Oc2ccc(OC)cc2)c1=O (centres undefined),1320 nM,864 nM,953 nM
COc1ccc(Sc2c(Cl)cnn(Cc3cccc4ccccc34)c2=O)cc1,660 nM,1030 nM,
COc1ccc(Nc2c(Cl)cnn(Cc3cccc4ccccc34)c2=O)cc1,inactive,9470 nM,> 20000 nM (inactive)
COc1ccc(Oc2c(Cl)c(C#N)nn(Cc3ccccc3C)c2=O)cc1,1090 nM,1270 nM,1190 nM
COc1ccc(Oc2c(C#N)cnn(Cc3cccc4ccccc34)c2=O)cc1,1310 nM,1690 nM,2490 nM
CCCOc1ccc(Oc2c(Cl)cnn(C3c4ccccc4-c4ccccc43)c2=O)cc1,> 20000 nM (inactive),> 20000 nM (inactive),> 20000 nM (inactive)
CCCOc1ccc(Oc2c(Cl)cnn(Cc3cccc4ccccc34)c2=O)cc1,1140 nM,1080 nM,1120 nM
COc1ccc(Oc2c(Cl)cnn(Cc3ccc4ccccc4c3)c2=O)cc1,1480 nM,1950 nM,2020 nM
CCOc1ccc(Oc2c(S(C)=O)cnn(Cc3cccc4ccccc34)c2=O)cc1 (centres undefined),2220 nM,2130 nM,2090 nM
COc1ccc(Oc2c(Cl)cnn(Cc3cccc4cnccc34)c2=O)cc1,3400 nM,4100 nM,4930 nM

# The remaining molecules from weak to strong by IC50 (run 2), led by results:
IC50 (run 1),IC50 (run 2),IC50 (run 3),SMILES
418 nM,808 nM,818 nM,C=Cc1nn(Cc2ccccc2C)c(=O)c(Oc2ccc(OC)cc2)c1C=C
843 nM,726 nM,719 nM,COc1ccc(Oc2c(Cl)cnn(Cc3c(F)cccc3F)c2=O)cc1
451 nM,597 nM,1310 nM,CCOC(=O)C(c1cccc2ccccc12)n1ncc(Cl)c(Oc2ccc(OC)cc2)c1=O (centres undefined)
580 nM,497 nM,481 nM,COc1ccc(Oc2c(Cl)cnn(C(c3ccccc3)c3ccccc3)c2=O)cc1
132 nM,242 nM,240 nM,COc1ccc(Oc2c(Br)cnn(Cc3cccc4ccccc34)c2=O)cc1
177 nM,237 nM,,CCOc1ccc(Oc2c(Cl)c(Br)nn(Cc3cccc4ccccc34)c2=O)cc1
480 nM,168 nM,207 nM,CCOc1ccc(Oc2c(Cl)cnn(C3c4ccccc4-c4ccccc43)c2=O)cc1

# Source: PubChem BioAssay AID540365 (The Scripps Research Institute Molecular Screening Center, 2011)
